Data: ChEMBL document CHEMBL5665443, “Enzyme Inhibitor Single Concentration assay results for EUbOPEN Chemogenomics Library” (2024)

How the values were obtained:
[1] = biological target: Methyl-CpG-binding domain protein 4 (Homo sapiens) (UniProt O95243);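 note: MBD4 activity read as fluorescence at 594 nm from cleavage and release of a quenched duplex DNA oligonucleotide, with APE1 coupled to incise the strand and raise turnover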
Description: Inhibition of MBD4 by quantifying inhibition of MBD4-mediated cleavage and dissociation of quenched duplex DNA oligonucleotides, measured as fluorescence at 594 nm. To generate a functional strand incision and increase turn-over this assay is coupled to APE1.

[2] = biological target: T1, Single-strand selective monofunctional uracil DNA glycosylase (Homo sapiens) (UniProt Q53HV7); details: Hit No;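 note: enzymatic SMUG1 assay coupled with APE1, reading fluorescence at 594 nm released when a quenched double-stranded DNA oligonucleotide substrate is cleaved and separated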
T1 sequence (whole entry): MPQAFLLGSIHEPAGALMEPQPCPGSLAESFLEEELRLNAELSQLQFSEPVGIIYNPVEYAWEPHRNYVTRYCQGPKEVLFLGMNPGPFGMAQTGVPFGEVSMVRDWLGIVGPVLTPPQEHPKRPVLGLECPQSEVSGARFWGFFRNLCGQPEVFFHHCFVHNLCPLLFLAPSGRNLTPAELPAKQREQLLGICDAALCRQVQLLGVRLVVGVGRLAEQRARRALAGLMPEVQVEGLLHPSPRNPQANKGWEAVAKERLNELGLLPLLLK
Description: Inhibition of SMUG1 by quantifying inhibition of SMUG1-mediated cleavage and dissociation of quenched duplex DNA oligonucleotides, measured as fluorescence at 594 nm. To generate a functional strand incision and increase turn-over this assay is coupled to APE1.

[3] = biological target: T2, Adenine DNA glycosylase (Homo sapiens) (UniProt Q9UIF7); details: Hit No;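 note: human MUTYH activity read as 594 nm fluorescence from cleavage and release of a quenched DNA duplex, coupled with APE1 for strand incision, lower signal meaning inhibition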
T2 sequence (whole entry): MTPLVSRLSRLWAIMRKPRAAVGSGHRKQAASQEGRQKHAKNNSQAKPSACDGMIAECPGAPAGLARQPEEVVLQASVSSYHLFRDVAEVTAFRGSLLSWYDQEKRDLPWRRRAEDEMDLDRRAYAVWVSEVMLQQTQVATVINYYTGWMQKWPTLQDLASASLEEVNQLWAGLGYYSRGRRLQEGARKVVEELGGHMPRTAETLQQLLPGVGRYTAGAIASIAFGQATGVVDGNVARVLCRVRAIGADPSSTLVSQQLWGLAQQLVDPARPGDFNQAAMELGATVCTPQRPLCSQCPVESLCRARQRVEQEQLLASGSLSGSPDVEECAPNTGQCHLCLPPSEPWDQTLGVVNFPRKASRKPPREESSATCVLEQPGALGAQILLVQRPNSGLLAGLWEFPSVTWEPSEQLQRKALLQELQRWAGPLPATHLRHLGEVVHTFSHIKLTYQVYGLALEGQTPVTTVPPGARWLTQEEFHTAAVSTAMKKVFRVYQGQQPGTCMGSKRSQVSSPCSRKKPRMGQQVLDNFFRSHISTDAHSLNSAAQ
Description: Inhibition of MUTYH by quantifying inhibition of MUTYH-mediated cleavage and dissociation of quenched duplex DNA oligonucleotides, measured as fluorescence at 594 nm. To generate a functional strand incision and increase turn-over this assay is coupled to APE1.

[4] = biological target: G/T mismatch-specific thymine DNA glycosylase (Homo sapiens) (UniProt Q13569);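 note: human TDG cleavage of quenched duplex DNA oligonucleotides coupled to APE1, strand release read as fluorescence at 594 nm, inhibition of TDG activity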
Description: Inhibition of TDG by quantifying inhibition of TDG-mediated cleavage and dissociation of quenched duplex DNA oligonucleotides, measured as fluorescence at 594 nm. To generate a functional strand incision and increase turn-over this assay is coupled to APE1.

[5] = biological target: T3, Endonuclease III-like protein 1 (Homo sapiens) (UniProt P78549); details: Hit No;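 note: enzyme assay tracking NTHL1 cutting and release of a quenched double-stranded DNA oligo substrate, read as fluorescence at 594 nm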
T3 sequence (whole entry): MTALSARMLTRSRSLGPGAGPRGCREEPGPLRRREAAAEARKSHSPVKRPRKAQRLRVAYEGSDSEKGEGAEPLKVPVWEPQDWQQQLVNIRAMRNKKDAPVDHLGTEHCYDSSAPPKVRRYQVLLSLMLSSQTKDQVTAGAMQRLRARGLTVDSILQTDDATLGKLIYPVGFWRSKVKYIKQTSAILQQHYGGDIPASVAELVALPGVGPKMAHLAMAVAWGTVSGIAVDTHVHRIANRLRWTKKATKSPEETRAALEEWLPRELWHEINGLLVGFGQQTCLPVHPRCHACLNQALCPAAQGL
Description: Inhibition of NTHL1 by quantifying inhibition of NTHL1-mediated cleavage and dissociation of quenched duplex DNA oligonucleotides, measured as fluorescence at 594 nm.

[6] = biological target: Uracil-DNA glycosylase (Homo sapiens) (UniProt P13051); details: Hit No;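 note: UNG excision on a quenched double-stranded DNA oligo probe, with APE1 added for strand incision and turnover, read as fluorescence at 594 nm as strands separate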
Description: Inhibition of UNG by quantifying inhibition of UNG-mediated cleavage and dissociation of quenched duplex DNA oligonucleotides, measured as fluorescence at 594 nm. To generate a functional strand incision and increase turn-over this assay is coupled to APE1.

[7] = biological target: N-glycosylase/DNA lyase (Homo sapiens) (UniProt O15527);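 note: OGG1 cleavage of a quenched duplex DNA oligonucleotide, coupled to APE1 for strand incision, read as fluorescence at 594 nm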
Description: Inhibition of OGG1 by quantifying inhibition of OGG1-mediated cleavage and dissociation of quenched duplex DNA oligonucleotides, measured as fluorescence at 594 nm. To generate a functional strand incision and increase turn-over this assay is coupled to APE1.

[8] = biological target: Endonuclease 8-like 1 (Homo sapiens) (UniProt Q96FI4); details: Hit No;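 note: fluorescence at 594 nm from quenched duplex DNA oligonucleotides released by NEIL1 cleavage and strand separation, reported as reduction of this enzyme activity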
Description: Inhibition of NEIL1 by quantifying inhibition of NEIL1-mediated cleavage and dissociation of quenched duplex DNA oligonucleotides, measured as fluorescence at 594 nm.

[9] = biological target: T4, Endonuclease 8-like 2 (Homo sapiens) (UniProt Q969S2); details: Compound Concentration 10.0 uM, Hit No;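 note: fluorescence at 594 nm reports NEIL2 cutting and release of a quenched double-stranded DNA oligo substrate, reduced signal read as inhibition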
T4 sequence (whole entry): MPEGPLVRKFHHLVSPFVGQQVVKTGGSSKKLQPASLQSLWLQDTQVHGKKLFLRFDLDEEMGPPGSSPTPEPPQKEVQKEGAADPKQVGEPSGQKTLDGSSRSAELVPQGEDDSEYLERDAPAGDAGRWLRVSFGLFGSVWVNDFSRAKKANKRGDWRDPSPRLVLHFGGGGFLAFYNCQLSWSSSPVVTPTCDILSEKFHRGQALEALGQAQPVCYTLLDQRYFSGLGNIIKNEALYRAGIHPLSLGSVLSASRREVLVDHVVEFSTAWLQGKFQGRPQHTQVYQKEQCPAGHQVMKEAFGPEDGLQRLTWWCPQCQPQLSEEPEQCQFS
Description: Inhibition of NEIL2 by quantifying inhibition of NEIL2-mediated cleavage and dissociation of quenched duplex DNA oligonucleotides, measured as fluorescence at 594 nm.

[10] = Compound Concentration 10.0 uM, Hit No
[11] = Compound Concentration 1.0 uM, Hit No
[12] = Compound Concentration 10.0 uM, Hit Yes

Sequence of N-glycosylase/DNA lyase (Homo sapiens) (O15527 whole entry): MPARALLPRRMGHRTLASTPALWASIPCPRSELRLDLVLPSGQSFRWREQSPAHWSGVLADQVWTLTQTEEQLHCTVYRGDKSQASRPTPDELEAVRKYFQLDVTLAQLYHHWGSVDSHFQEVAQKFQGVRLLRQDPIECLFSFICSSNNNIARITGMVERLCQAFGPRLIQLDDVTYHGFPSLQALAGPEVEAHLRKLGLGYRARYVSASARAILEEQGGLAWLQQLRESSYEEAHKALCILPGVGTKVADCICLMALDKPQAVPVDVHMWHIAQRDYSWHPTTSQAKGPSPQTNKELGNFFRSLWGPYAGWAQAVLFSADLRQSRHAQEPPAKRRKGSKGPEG
Sequence of G/T mismatch-specific thymine DNA glycosylase (Homo sapiens) (Q13569 whole entry): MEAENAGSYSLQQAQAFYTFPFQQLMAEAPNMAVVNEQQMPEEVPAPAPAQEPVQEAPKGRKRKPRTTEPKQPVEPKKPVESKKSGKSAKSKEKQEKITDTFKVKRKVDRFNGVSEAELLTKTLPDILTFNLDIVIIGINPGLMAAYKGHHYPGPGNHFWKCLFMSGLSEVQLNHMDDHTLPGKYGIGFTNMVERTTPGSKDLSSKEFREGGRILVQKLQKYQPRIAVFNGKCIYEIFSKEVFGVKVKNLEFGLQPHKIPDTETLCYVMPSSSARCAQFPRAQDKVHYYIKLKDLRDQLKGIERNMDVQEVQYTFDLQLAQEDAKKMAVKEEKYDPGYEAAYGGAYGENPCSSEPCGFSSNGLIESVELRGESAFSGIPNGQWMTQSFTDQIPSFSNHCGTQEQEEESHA
Sequence of Endonuclease 8-like 1 (Homo sapiens) (Q96FI4 whole entry): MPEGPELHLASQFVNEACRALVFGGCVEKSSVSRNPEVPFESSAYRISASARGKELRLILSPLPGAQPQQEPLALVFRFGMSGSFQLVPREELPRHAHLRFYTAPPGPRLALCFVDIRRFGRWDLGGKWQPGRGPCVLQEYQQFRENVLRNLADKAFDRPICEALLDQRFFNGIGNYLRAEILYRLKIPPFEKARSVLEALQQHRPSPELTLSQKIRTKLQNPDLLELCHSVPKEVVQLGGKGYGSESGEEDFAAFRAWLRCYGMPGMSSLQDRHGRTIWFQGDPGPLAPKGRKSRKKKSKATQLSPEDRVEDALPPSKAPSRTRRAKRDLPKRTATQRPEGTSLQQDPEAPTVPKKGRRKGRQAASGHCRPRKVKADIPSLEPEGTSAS
Sequence of Methyl-CpG-binding domain protein 4 (Homo sapiens) (O95243 whole entry, the tested form may be a part): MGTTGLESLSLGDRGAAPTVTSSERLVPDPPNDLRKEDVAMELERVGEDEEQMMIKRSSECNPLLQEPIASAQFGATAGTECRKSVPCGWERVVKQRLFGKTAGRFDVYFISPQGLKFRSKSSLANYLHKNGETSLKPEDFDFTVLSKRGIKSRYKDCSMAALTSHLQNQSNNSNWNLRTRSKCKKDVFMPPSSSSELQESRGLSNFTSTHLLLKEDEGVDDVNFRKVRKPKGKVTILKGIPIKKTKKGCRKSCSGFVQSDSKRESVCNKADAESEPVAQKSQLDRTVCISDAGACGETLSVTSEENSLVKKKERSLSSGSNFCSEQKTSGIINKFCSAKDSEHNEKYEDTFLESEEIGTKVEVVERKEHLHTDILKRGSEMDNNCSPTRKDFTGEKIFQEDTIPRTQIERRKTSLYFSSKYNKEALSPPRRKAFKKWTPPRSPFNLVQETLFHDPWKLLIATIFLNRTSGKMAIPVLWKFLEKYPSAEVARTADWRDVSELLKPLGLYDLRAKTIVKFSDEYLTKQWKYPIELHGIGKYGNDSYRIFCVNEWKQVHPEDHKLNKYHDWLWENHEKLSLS
Sequence of Uracil-DNA glycosylase (Homo sapiens) (P13051 whole entry): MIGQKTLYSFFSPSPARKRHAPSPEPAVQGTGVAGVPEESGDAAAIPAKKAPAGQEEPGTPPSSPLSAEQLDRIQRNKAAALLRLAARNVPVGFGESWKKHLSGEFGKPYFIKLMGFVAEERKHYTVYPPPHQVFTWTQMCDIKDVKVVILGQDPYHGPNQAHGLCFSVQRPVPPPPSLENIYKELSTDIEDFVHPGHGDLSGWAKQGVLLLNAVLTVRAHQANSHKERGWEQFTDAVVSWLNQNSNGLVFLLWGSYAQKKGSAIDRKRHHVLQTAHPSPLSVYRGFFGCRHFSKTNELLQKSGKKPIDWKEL

SMILES | inhibition [1, 10] [%] | inhibition ([2]; Compound Concentration 10.0 uM) [%] | inhibition ([3]; Compound Concentration 10.0 uM) [%] | inhibition [4, 10] [%] | inhibition ([5]; Compound Concentration 10.0 uM) [%] | inhibition ([6]; Compound Concentration 10.0 uM) [%] | inhibition [7, 10] [%] | inhibition ([8]; Compound Concentration 10.0 uM) [%] | inhibition [1, 11] [%] | inhibition ([2]; Compound Concentration 1.0 uM) [%] | inhibition ([3]; Compound Concentration 1.0 uM) [%] | inhibition [4, 11] [%] | inhibition ([5]; Compound Concentration 1.0 uM) [%] | inhibition ([6]; Compound Concentration 1.0 uM) [%] | inhibition [7, 11] [%] | inhibition [7, 12] [%] | inhibition [1, 12] [%] | inhibition [4, 12] [%] | inhibition [9] [%] | inhibition ([8]; Compound Concentration 1.0 uM) [%]
CN(C)C(=O)N1CC[C@H](NC2=Nc3cc(F)ccc3N(CC(F)F)c3ccc(Cl)cc32)C1 | -7.39 | 19.6 | 36.6 | 38.4 | -2.7 | 6.61 | -5.59 | -0.787 | – | – | – | – | – | – | – | – | – | – | – | –
CC(C)(C)c1ccc(C(=O)Nc2cn3cc(-n4ccnc4)ccc3n2)cc1 | 1.23 | 16.9 | 6.44 | 51.5 | -0.61 | 4.09 | 22.7 | -0.391 | – | – | – | – | – | – | – | – | – | – | – | –
O=C(NCc1ccccc1)c1ccc(S(=O)(=O)NCc2ccccc2)cc1 | -9.13 | 24.3 | 27.8 | 39 | -8.98 | 3.04 | 32.2 | -2.64 | – | – | – | – | – | – | – | – | – | – | – | –
COC[C@H](NC(=O)c1ccn(S(C)(=O)=O)c1)C(=O)Nc1nc(-c2cccc(-c3ccn(C)n3)c2)cs1 | – | – | – | – | – | – | – | – | 43.1 | 16.9 | 2.68 | 48.2 | -3.92 | 4.22 | -7.59 | – | – | – | – | –
C[C@H](CCOc1cccc(CC(=O)O)c1)N(Cc1cccc(C(F)(F)F)c1Cl)CC(c1ccccc1)c1ccccc1 | 61.9 | 19 | -7.97 | 52 | 11.9 | 0.574 | – | -4.38 | – | – | – | – | – | – | – | 103 | – | – | – | –
Cc1nc(NC(=O)N2CCC[C@H]2C(N)=O)sc1-c1ccnc(C(C)(C)C(F)(F)F)c1 | -5.03 | 16.5 | 6.32 | 38 | 12.6 | 2.95 | 12.9 | – | – | – | – | – | – | – | – | – | – | – | – | –
CN(C)CCN(Cc1ccc(-c2ccc(CNCCc3ccccc3)cc2)cc1)C(=O)CCC1CCCC1 | – | -6.4 | 93.4 | – | 8 | 1.96 | 3.9 | 4.6 | – | – | – | – | – | – | – | – | 78.7 | 80.3 | – | –
O=c1ccc2ccc(OCCCCN3CCN(c4cccc5sccc45)CC3)cc2[nH]1 | -1.94 | -9.19 | 3.6 | -1.81 | 4.86 | – | -3.25 | 6.47 | – | – | – | – | – | – | – | – | – | – | -1.98 | –
Cc1nccc(COC(=O)N2C[C@@H]3[C@@H](CNC(=O)c4ccc5[nH]nnc5c4)[C@@H]3C2)n1 | 55.9 | 19.9 | 10.4 | 59.6 | 0.685 | 1.28 | -5.03 | – | – | – | – | – | – | – | – | – | – | – | – | –
C[C@@H]1CN(c2cc(-c3n[nH]c4ccc(OC5(C)CC5)cc34)ncn2)C[C@H](C)O1 | 64.1 | 18 | 9.89 | 98.4 | 2 | 3.96 | -2.23 | -1.5 | 12.4 | 23.1 | -7.22 | 48.1 | -1.31 | 7.33 | 12.9 | – | – | – | – | -2.64
O[C@H]1CC[C@H](Nc2ncc3nc(Nc4c(F)cc(F)cc4F)n([C@H]4CCOC4)c3n2)CC1 | -7.12 | 20.8 | 1.28 | 37.3 | 1.48 | 2.17 | 6.26 | – | – | – | – | – | – | – | – | – | – | – | – | –
CC(C)(O)c1ccc(N2Cc3c(ccnc3-c3ccc(F)cc3OCC(F)(F)F)C2=O)cc1 | – | – | – | – | – | – | – | – | 55.3 | 2.79 | -6.44 | 51.2 | -1.95 | 3.14 | -2.43 | – | – | – | – | -3.02
O=C1N/C(=N/c2ccccc2F)S/C1=C\c1ccc(C(=O)O)cc1 | -3.22 | -0.227 | 3.09 | 3.04 | 17.3 | – | -2.53 | -0.204 | – | – | – | – | – | – | – | – | – | – | 3.51 | –
CCn1c(=O)c(C)cn(Cc2nnc(-c3ccc(F)c(O)c3F)s2)c1=O | 53.9 | 3.85 | -9.23 | 48 | 2 | -4.5 | -4.39 | – | – | – | – | – | – | – | – | – | – | – | – | –
COc1ccc(OC(=O)N(CC(=O)O)Cc2ccc(OCCc3nc(-c4ccccc4)oc3C)cc2)cc1 | 67.6 | 20.2 | 29.2 | 53.7 | 5.94 | 3.56 | 27 | – | – | – | – | – | – | – | – | – | – | – | – | –
N[C@@]1(C(=O)O)CO[C@H]2[C@H](C(=O)O)[C@H]21 | 10.3 | 2.42 | 10.7 | 9.39 | 24.5 | -8.59 | – | -2.51 | – | – | – | – | – | – | – | – | – | – | -7.74 | –
Cn1cncc1[C@@](O)(COc1ccc(C#N)cc1-c1ccc(OC(F)(F)F)cc1)c1ccc(C#N)cc1 | 56 | -1.81 | -9.72 | 45.8 | 7.26 | -3.07 | 10.2 | – | – | – | – | – | – | – | – | – | – | – | – | –
CC(C)(C)NC[C@H](O)COc1nsnc1N1CCOCC1 | 2.07 | -0.808 | 2.84 | 9.57 | -8.34 | – | -3.29 | -6.13 | – | – | – | – | – | – | – | – | – | – | -5.47 | –
